Test results reported in patent publication US11266715B2, “C3A receptor agonists for use against ischemic brain injury, stroke, traumatic brain injury, spinal cord injury and neurodegenerative disorders” (priority 2016, dated 2022).

System: VGLUT1+ puncta
Assay: VGLUT1 immunostaining of dorsal hippocampus after neonatal HI
Assay type: in vivo, mouse
Settings: between groups or hemispheres
Protocol: Neuronal nuclei (NeuN), growth associated protein 43 (GAP-43), synapsin I (SYN), vesicular glutamate transporter 1 (VGLUT1), Glial Fibrillary Acidic Protein (GFAP) and ionized calcium-binding adapter molecule 1 (Iba-1) were visualized in the cornu ammonis (CA) and dentate gyrus (DG) of the dorsal hippocampus by immunohistochemistry. Briefly, following heat-induced antigen retrieval with 0.01 M citrate buffer (pH 6, 0.05% Tween 20) for 3×5 min, sections were washed 3×5 min with PBS-T (0.05% Tween 20), non-specific protein binding was reduced by incubation with blocking buffer [4% normal donkey serum (NeuN and Iba-1), 1% bovine serum albumin (GAP-43 and SYN), 3% normal goat serum (VGLUT1), 2% bovine serum albumin (GFAP) in PBS-T] for 1 h at room temperature (RT). […]
NeuN positive cells, GFAP positive relative area, as well as GAP-43, SYN, and VGLUT1 positive puncta were counted by using MetaMorph software (ver. 7.8.6, Molecular Devices, CA, USA) on confocal images obtained with a 20× (NeuN and GFAP) or 63× (GAP-43, SYN, and VGLUT1) objective (Carl Zeiss LSM 700 Laser Scanning Microscope, Jena, Germany). Iba-1 positive cell somata were counted on bright field images obtained with a 20× objective (Nikon Eclipse 80i). […]

**Q.** For “C3a: Purified human C3a peptide (Complement Technologies), C3a receptor agonist, amino acid sequence SEQ ID NO: 1”, which “density or average area of VGLUT1+ puncta in CA1 or dentate gyrus” value is on record?
**A.** The value was “did not find any differences”.
